Counter-ions that a name gives are not always drawn.
Assays:
[1] = Cytotoxic activity (MTT assay); format: cell-based, human; settings: human
Description: (§1) After incubation, the glycosides with medium were replaced by 100 μL of fresh medium. Then, 10 μL of MTT (3-(4,5-dimethylthiazol-2-yl)-2,5-diphenyltetrazolium bromide) (Sigma-Aldrich, St. Louis, MO, USA) stock solution (5 mg/mL) was added to each well, followed by incubation of the microplate for 4 h. After this procedure, 100 μL of SDS-HCl solution (1 g SDS/10 mL d-H2O/17 μ[…] HCl) was added to each well and incubated for 18 h. The absorbance of the converted dye formazan was determined with a Multiskan FC microplate photometer (Thermo Fisher Scientific, Waltham, MA, USA) at 570 nm.

[2] = Cytotoxic activity (MTT assay); format: cell-based, human; settings: human; remark: listed apart in the source
Description: as §1

human erythrocytes = assay: Hemolytic activity; format: cell-based; settings: for ED50, Erythrocytes: 1 h incubation at 37 °C, 50% hemolysis
Description: Erythrocytes were obtained from human blood (AB(IV) Rh+) by centrifugation with phosphate-buffered saline (PBS) (pH 7.4) at 4 °C for 5 min by 450 g on a LABOFUGE 400R centrifuge (Heraeus, Hanau, Germany) three times. Then, the erythrocytes residue was resuspended in ice cold phosphate saline buffer (pH 7.4) to a final optical density of 1.5 at 700 nm and kept on ice. For the hemolytic assay, 180 µL of erythrocyte suspension was mixed with 20 µL of test compound solution, as well as control, chitonoidoside L [33], in V-bottom 96-well plates. After 1 h of incubation at 37 °C, the plates were exposed to centrifugation for 10 min at 900 g in a laboratory LMC-3000 centrifuge (Biosan, Riga, Latvia). Then, 100 µL of supernatant was carefully decanted and transferred into new flat plates. The values of the lysis of the erythrocytes were found by measuring the concentration of hemoglobin in the supernatant with a Multiskan FC microplate photometer (Thermo Fisher Scientific, Waltham, MA, USA); λ = 570 nm. […] All the experiments were carried out in triple repetitions; p < 0.01.

cancer cell lines = assay: Cytotoxic action against cancer cell lines (summary in words); format: cell-based, human; settings: cancer cell lines HL-60, MCF-7, T-47D, MDA-MB-231
Description: All the substances were tested in concentrations from 0.1 µM to 50 µM. Cisplatin was used as positive control. The cell suspension (180 µL) and solutions (20 µL) of tested glycosides in different concentrations were injected in wells of 96-well plates (MCF-7, T-47D, MDA-MB-231, and HEK293—7 × 10^3 cells/well) and incubated at 37 °C for 24 h in an atmosphere with 5% CO2. Glycosides 1 and 2, cucumarioside A0-1, and okhotoside A1-1 at concentrations of 1.25–10.0 μM were incubated with MDA-MB-231 cells at 37 °C for 24, 48, and 72 h in an atmosphere with 5% CO2. After incubation, the glycosides with medium were replaced by 100 µL of fresh medium. Then, 10 µL of MTT (3-(4,5-dimethylthiazol-2-yl)-2,5-diphenyltetrazolium bromide) (Sigma-Aldrich, St. Louis, MO, USA) stock solution (5 mg/mL) was added to each well, followed by incubation of the microplate for 4 h. After this procedure, 100 µL of SDS-HCl solution (1 g SDS/10 mL d-H2O/17 µL 6 N HCl) was added to each well and incubated for 18 h. The absorbance of the converted dye formazan was determined with a Multiskan FC microplate photometer (Thermo Fisher Scientific, Waltham, MA, USA) at 570 nm. […] The experiments were conducted in triplicate; p < 0.05.
Then, the cells were incubated with 10 µL MTS ([3-(4,5-dimethylthiazol-2-yl)-5-(3-carboxymethoxyphenyl)-2-(4-sulfophenyl)-2H-tetrazolium) for 4 h, and the absorbance in each well was determined at 490/630 nm with a PHERA star FS plate reader (BMG Labtech, Ortenberg, Germany). The experiments were conducted in triplicate. The results were presented as the percentage of inhibition that produced a reduction in absorbance after tested glycosides treatment compared to the nontreated cells (negative control); p < 0.01.

[3] = Cytotoxic activity (MTT assay); format: cell-based, human; settings: human; remark: listed apart in the source
Description: as §1

[4] = Cytotoxic activity (MTS assay); format: cell-based, human; settings: human
Description: Then, the cells were incubated with 10 µL MTS ([3-(4,5-dimethylthiazol-2-yl)-5-(3-carboxymethoxyphenyl)-2-(4-sulfophenyl)-2H-tetrazolium) for 4 h, and the absorbance in each well was determined at 490/630 nm with a PHERA star FS plate reader (BMG Labtech, Ortenberg, Germany). The experiments were conducted in triplicate.

[5] = Cytotoxic activity (MTT assay); format: cell-based, human; settings: human; remark: listed apart in the source
Description: as §1

MDA-MB-231 cells [6] = assay: Colony formation (clonogenic) assay; format: cell-based, human; settings: Homo sapiens; MDA-MB-231, concentration 2 μM; read-out: Inhibition of colony growth, % of the control
Description: The influence of glycosides on the proliferation of MDA-MB-231 cells was analyzed by clonogenic assay. Briefly, MDA-MB-231 cells were cultured on 6-well plates at a density of 1 × 10^3 cells per well in control media (MEM media, 10% FBS, 10,000 U/mL of penicillin and 10,000 μg/mL of streptomycin) or in media supplemented with different concentrations of glycosides. Cells were incubated for one week at 37 °C with 5% CO2 until the cells in the control plates formed colonies that were visible to the eye and were of a substantial size (at least 50 cells per colony). For fixation and staining, the media were removed and the cells were washed twice with PBS. The colonies were fixed with methanol for 25 min, then washed with PBS and stained with 0.5% crystal violet solution for 25 min at room temperature. The plates were then washed with water and air dried.

MDA-MB-231 cells [7] = assay: Wound scratch migration assay; format: cell-based, human
Description: To analyze the influence of the tested compounds on tumor cell migration, MDA-MB-231 cells attached to the plate’s plastic bottom were separated by a silicone insert from special migration plates (Culture-insert 2 Well 24, ibiTreat); then, the insert was removed, leaving a gap of 500 ± 50 μm (according to the manufacturer’s data) between the cells. The cells were washed twice by PBS to remove cell debris and floating cells and loaded with a fluorescent probe, a (5,6)-carboxyfluorescein succinimidyl ester (CFDA SE) dye (LumiTrace CFDA SE kit, Lumiprobe, Moscow, Russia). The initial solution of CFDA SE at a concentration of 5 mM in DMSO was dissolved in PBS to prepare a 10 μM solution and was added to the cells for 5 min at 37 °C; then, the cells were washed twice with PBS, and fresh culture medium was added. After that, the cells were treated with various concentrations of glycosides and left for 8 and 24 h. Cells treated with culture medium only were used as control. Cell migration into the wound area was then observed under a fluorescence microscope (MIB-2-FL, LOMO, Saint Peterburg, Russia) with an objective ×10 magnification.

Row | SMILES | IC50 at 24 h [1] | IC50 at 24 h [2] | Hemolytic action (in words) (human erythrocytes) | ED50, Erythrocytes (human erythrocytes) | Activity against cancer cells (in words) (cancer cell lines) | IC50 at 24 h [3] | IC50 at 24 h [4] | IC50 at 24 h [5] | inhibition at 2 µM (MDA-MB-231 cells [6]) | Blockage of migration in relation to control (MDA-MB-231 cells [7]; MDA-MB-231, 1 μM, 24 h) | EC50 at 48 h [3] | EC50 at 72 h [3] | inhibition at 2 µM (MDA-MB-231 cells [7]; Homo sapiens, MDA-MB-231, 2 μM, 24 h incubation, read-out: Inhibition of migration as compared to control)
1 | COC1C(O)C(CO)OC(OC2C(O)COC(OC3C(C)OC(OC4C(OC5CCC6(C)C7CCC89C(=O)OC%10(C)C(O)C(O)(CC(C)C)OC(CC8(C)C7=CCC6C5(C)C)C%109)OCC(OS(=O)(=O)O)C4O)C(OC4OCC(O)C(O)C4O)C3O)C2O)C1O [djakonovioside B4 (7), 3β-O-{3-O-methyl-β-D-glucopyranosyl-(1→3)-β-D-xylopyranosyl-(1→4)-[(1→2)-β-D-xylopyranosyl]-β-D-quinovopyranosyl-(1→2)-4-O-sodium sulfate-β-D-xylopyranosyl}-22S-hydroxyholost-7-en-23R,16β-hemiketal] | > 50 µM | > 50 µM | moderately hemolytic | 17.07 ± 1.15 µM | inactive | > 50 µM | > 50 µM | > 50 µM |  |  |  |  | 
2 | CO[C@@H]1[C@@H](O)[C@H](O[C@@H]2[C@@H](O)[C@H](O[C@H]3[C@H](O)[C@@H](O)[C@H](O[C@H]4[C@H](O[C@H]5CC[C@]6(C)[C@@H]7CCC89C(=O)O[C@@](C)(C[C@@H](O)CC(C)C)[C@H]8[C@@H](OC(C)=O)C[C@@]9(C)C7=CC[C@H]6C5(C)C)OC[C@@H](OS(=O)(=O)O)[C@@H]4O)O[C@@H]3C)OC[C@H]2O)O[C@H](CO)[C@H]1O (stereo partly drawn) [djakonovioside A (1), 3β-O-[3-O-methyl-β-D-glucopyranosyl-(1→3)-β-D-xylopyranosyl-(1→4)-β-D-quinovopyranosyl-(1→2)-4-O-sodium sulfate-β-D-xylopyranosyl}-16β-acetoxy,23S-hydroxyholost-7-en] |  |  |  | 2.46 ± 0.22 µM |  |  | 6.05 ± 0.17 µM |  | 41.4 ± 3.16% | 79.92 ± 0.27% | 4.45 µM | 3.77 µM | 
3 | CO[C@@H]1[C@@H](O)[C@H](O[C@@H]2[C@@H](O)[C@H](O[C@H]3[C@H](O)[C@@H](O[C@@H]4OC[C@@H](O)[C@H](O)[C@H]4O)[C@H](O[C@H]4[C@H](O[C@H]5CC[C@]6(C)[C@@H]7CCC89C(=O)O[C@@](C)([C@H](O)C(=O)CC(C)C)[C@H]8[C@@H](OC(C)=O)C[C@@]9(C)C7=CC[C@H]6C5(C)C)OC[C@@H](OS(=O)(=O)O)[C@@H]4O)O[C@@H]3C)OC[C@H]2O)O[C@H](CO)[C@H]1O (stereo partly drawn) [djakonovioside B1 (4), 3β-O-{3-O-methyl-β-D-glucopyranosyl-(1→3)-β-D-xylopyranosyl-(1→4)-[(1→2)-β-D-xylopyranosyl]-β-D-quinovopyranosyl-(1→2)-4-O-sodium sulfate-β-D-xylopyranosyl}-16β-acetoxy,22S-hydroxy,23-oxo-holost-7-en] |  |  |  | 6.03 ± 0.47 µM |  |  | 20.1 ± 0.8 µM |  |  |  |  |  | 
4 | COC1C(O)C(CO)OC(OC2C(O)COC(OC3C(C)OC(OC4C(OC5CCC6(C)C7CCC89C(=O)OC%10(C)CC(O)(CC(C)C)OC(CC8(C)C7=CCC6C5(C)C)C%109)OCC(OS(=O)(=O)O)C4O)C(OC4OCC(O)C(O)C4O)C3O)C2O)C1O [djakonovioside B2 (5), 3β-O-{3-O-methyl-β-D-glucopyranosyl-(1→3)-β-D-xylopyranosyl-(1→4)-[(1→2)-β-D-xylopyranosyl]-β-D-quinovopyranosyl-(1→2)-4-O-sodium sulfate-β-D-xylopyranosyl}-holost-7-en-23R,16β-hemiketal] |  |  | moderately hemolytic | 16.34 ± 0.34 µM | inactive |  | 38.6 ± 1.05 µM |  |  |  |  |  | 
5 | COC1C(O)C(CO)OC(OC2C(O)COC(OC3C(C)OC(OC4C(OC5CCC6(C)C7CCC89C(=O)OC%10(C)C(O)C(O)(CC(C)C)OC(CC8(C)C7=CCC6C5(C)C)C%109)OCC(OS(=O)(=O)O)C4O)C(O)C3O)C2O)C1O [djakonovioside A2 (3), 3β-O-[3-O-methyl-β-D-glucopyranosyl-(1→3)-β-D-xylopyranosyl-(1→4)-β-D-quinovopyranosyl-(1→2)-4-O-sodium sulfate-β-D-xylopyranosyl}-22S-hydroxyholost-7-en-23R,16β-hemiketal] | > 50 µM | > 50 µM | moderately hemolytic | 30.86 ± 0.97 µM | inactive | > 50 µM | > 50 µM | > 50 µM |  |  |  |  | 
6 | CO[C@@H]1[C@@H](O)[C@H](O[C@@H]2[C@@H](O)[C@H](O[C@H]3[C@H](O)[C@@H](O)[C@H](O[C@H]4[C@H](O[C@H]5CC[C@]6(C)[C@@H]7CCC89C(=O)O[C@@](C)([C@H](O)C(=O)CC(C)C)[C@H]8[C@@H](OC(C)=O)C[C@@]9(C)C7=CC[C@H]6C5(C)C)OC[C@@H](OS(=O)(=O)O)[C@@H]4O)O[C@@H]3C)OC[C@H]2O)O[C@H](CO)[C@H]1O (stereo partly drawn) [djakonovioside A1 (2), 3β-O-[3-O-methyl-β-D-glucopyranosyl-(1→3)-β-D-xylopyranosyl-(1→4)-β-D-quinovopyranosyl-(1→2)-4-O-sodium sulfate-β-D-xylopyranosyl}-16β-acetoxy,22S-hydroxy,23-oxo-holost-7-en] |  |  |  | 2.26 ± 0.25 µM |  |  | 4.44 ± 0.37 µM |  | 19.2 ± 0.25% |  | 7.33 µM | 6.25 µM | 79.5 ± 9.12%

Reference: publication PMC10342010, “Djakonoviosides A, A1, A2, B1–B4 — Triterpene Monosulfated Tetra- and Pentaosides from the Sea Cucumber Cucumaria djakonovi: The First Finding of a Hemiketal Fragment in the Aglycones; Activity against Human Breast Cancer Cell Lines” (International Journal of Molecular Sciences, 2023)
